{
  "source": "patent US12691141B2",
  "about": "“Use of micro- and nano-MgH2 compound particles in inhibition of leishmania infection and treatment of leishmaniasis” (SHANGHAI JIAO TONG UNIVERSITY, priority 2020, dated 2026)",
  "key": {"[1]": {"tested_on": "Leishmania", "assay": "Cure time of skin/mucosal ulcer and impaired organ function caused by Leishmania", "conditions": "in vivo"}, "[2]": {"tested_on": "Leishmaniabraziliensis", "assay": "Skin ulceration of Leishmania-infected hamsters", "type": "in vivo, hamsters (Mesocricetus auratus)", "conditions": "200 μg/mL subcutaneous injection at ulcer site 100 μL/mouse/d", "method": "2) Research on the treatment with micro- and nano-MgH2 compound particles: • 2.1 MgH2 compound particles with a particle diameter of 100 nm to 1,000 nm were first dissolved in a phosphoric acid buffer to prepare 5 concentration groups (1 mg/100 uL, 3 mg/100 uL, 5 mg/100 uL, 10 mg/100 uL, and 15 mg/100 uL). • 2.2 A Leishmaniabraziliensis-infected mouse model was established, which was specified as follows:\nVarious hamsters (Mesocricetus auratus) were selected, the lower dorsal margin was shaved, and Leishmania (1 million/100 uL/mouse) was injected subcutaneously at 2 cm of an upper margin of a tail. […] MgH2 compound particles (with a particle size of 100 nm to 1,000 nm) at different concentrations (100 uL) were smeared to a skin lesion of an infected hamster once every 24 h continuously for 14 d. An untreated group (namely, a blank control group, infected mice were not treated) and an antimony preparation subcutaneous injection group (sodium antimony gluconate (5-valent antimony preparation, 200 μg/mL) was injected subcutaneously at an ulcer site 100 μL/mouse/d) were set."}, "[3]": {"conditions": "existing studies; cited from earlier work"}},
  "data": [
    {"substance": "sodium antimony gluconate [Antimony preparation]", "values": [
      {"measurement": "cure time", "setting": "[1]", "value": "1 to 3", "unit": "months"},
      {"measurement": "Healing rate of a skin ulceration wound", "setting": "[2]; day 0", "value": 0, "unit": "%"},
      {"measurement": "Healing rate of a skin ulceration wound", "setting": "[2]; day 3", "value": "15.3 ± 2.0", "unit": "%"},
      {"measurement": "Healing rate of a skin ulceration wound", "setting": "[2]; day 7", "value": "75.2 ± 4.8", "unit": "%"},
      {"measurement": "Healing rate of a skin ulceration wound", "setting": "[2]; day 14", "value": "88.9 ± 5.1", "unit": "%"},
      {"measurement": "side effects", "setting": "[3]", "value": "serious liver and kidney function damage"}
    ]}
  ]
}
